# Patent US20230053941A1, “MICROEMULSIONS WITH DICAMBA SALTS HAVING IMPROVED PROPERTIES” (MONSANTO TECHNOLOGY LLC, priority 2020, published 2023)
# Test: Partition coefficient of compound (A) in solvents
# Type: physicochemical
# Conditions: HPLC, approximately 25° C.
# Protocol: Experimental procedure for the respective solvent: (1) A solution of 10 g of compound (A) is prepared in 90 g of the respective solvent. (2) An aliquot of 10 g of the solution obtained in step (1) is added to 90 g of water in a glass bottle, which is shaken on a mechanical shaker for 4 hours at ambient temperature (approximately 25° C.). (3) The contents of the glass bottle are permitted to phase separate for 4 days at ambient temperature (approximately 25° C.). (4) Subsamples of the resulting oil and water phases are taken and analyzed by HPLC to determine the concentrations of compound (A) in oil (Co) and water phases (Cw) respectively. The subsamples are typically centrifuged before HPLC analysis to remove traces of organic solvent from the water phase.
# A Partition Coefficient, analogous to the Octanol-Water Partition Coefficient, P, is calculated as Co/Cw. The Partition Coefficient is conveniently expressed as a logarithm […].
# The ratio of determined concentrations of compound (A) in the solvent phase and the water phase typically is very large. […] In other cases, traces of the organic solvent are found in the water phase, even after centrifugation, so that the apparent concentration of oil-soluble herbicide observed in the water phase is misleadingly high. […]
smiles,measurement,setting,value
"CCOC(=O)COc1ncccc1Oc1cc(-n2c(=O)cc(C(F)(F)F)n(C)c2=O)c(F)cc1Cl [Cmp. A, ethyl [3-[2-chloro-4-fluoro-5-(1-methyl-6-trifluoromethyl-2,4-dioxo-1,2,3,4-tetrahydropyrimidin-3-yl)phenoxy]-2-pyridyloxy]acetate]",compound (A) in the water phase,acetophenone as organic solvent,undetectable
same,compound (A) in the water phase,aromatic 200 ND as organic solvent,undetectable
